According to publication PMC3266496 (2011):

Tests used:
trypanothione reductase [1] = molecular target: T1, trypanothione reductase (Leishmania infantum, UniProt A4HSF7); experiment: X-ray crystal structure at […] Å; assay type: biochemical
trypanothione reductase [2] = molecular target: T1, trypanothione reductase; experiment: NADPH oxidation kinetics at […] nm, Lineweaver–Burk and Dixon plots; assay type: biochemical

T1 sequence (A4HSF7 1-491): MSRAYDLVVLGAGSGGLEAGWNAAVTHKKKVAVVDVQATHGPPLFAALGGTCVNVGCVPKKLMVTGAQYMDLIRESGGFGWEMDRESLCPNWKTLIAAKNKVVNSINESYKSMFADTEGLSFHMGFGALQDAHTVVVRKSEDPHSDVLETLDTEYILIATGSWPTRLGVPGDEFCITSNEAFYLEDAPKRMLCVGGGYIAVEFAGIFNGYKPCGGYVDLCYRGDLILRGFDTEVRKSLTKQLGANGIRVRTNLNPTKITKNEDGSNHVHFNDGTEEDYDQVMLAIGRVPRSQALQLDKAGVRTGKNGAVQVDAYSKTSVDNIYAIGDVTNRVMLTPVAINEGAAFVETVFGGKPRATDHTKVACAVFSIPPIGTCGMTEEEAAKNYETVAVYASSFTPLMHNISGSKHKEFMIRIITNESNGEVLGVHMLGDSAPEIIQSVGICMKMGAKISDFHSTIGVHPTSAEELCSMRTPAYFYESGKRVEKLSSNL

SMILES | Ki (trypanothione reductase [1]) [nM] | Ki (trypanothione reductase [2]) [nM]
CC[P](CC)(CC)=[Au][S][C@@H]1O[C@H](COC(C)=O)[C@@H](OC(C)=O)[C@H](OC(C)=O)[C@H]1OC(C)=O [AF, auranofin] | 155 ± 35 | –
CCP(CC)CC.[Au+].[Cl-] [CTPAu, Chloro(triethylphosphine)gold(I)] | – | 18 ± 7
